Data from PubChem BioAssay AID248 (DTP/NCI, 2004).
“And” between values parts separate entries of the source, which are not always exact repeats. Equal values may be shown once. Toxic doses and inconclusive results are not listed. No stated cut-off is given here; in the data, active means T/C of 150% or more; inactive means T/C below 125%. Square brackets hold non-standard residues; d marks the D form. Peptide text beside a SMILES is read from it. * marks the point of attachment. ξ: configuration not given here. ξY = NC(Cc1ccc(O)cc1)C(=O)O; Cbz = O=C(OCc1ccccc1)*; ξD = NC(CC(=O)O)C(=O)O; OBn = c1ccc(CO*)cc1

Test system: L1210 leukemia ip in BDF1 mice, survival T/C
Test: NCI In Vivo Anticancer Drug Screen. Data for tumor model L1210 Leukemia (intraperitoneal) in B6D2F1 (BDF1) mice
Conditions: endpoint: mean survival time, higher = longer survival
Summary of the method: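 Ratio derived from survival: compound-dosed mice over vehicle-dosed mice, all bearing a transplantable tumor.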

[1] = dose: 100.0 mg/kg/injection, schedule: Q01DX001 (ip), vehicle: carboxymethylcellulose (CMC)
[2] = dose: 200.0 mg/kg/injection, schedule: Q01DX001 (ip), vehicle: carboxymethylcellulose (CMC)
[3] = dose: 100.0 mg/kg/injection, schedule: Q04DX003 (ip), vehicle: Klucel (hydroxypropylcellulose) (HPC)
[4] = dose: 100.0 mg/kg/injection, schedule: Q01DX001 (ip), vehicle: saline
[5] = dose: 200.0 mg/kg/injection, schedule: Q01DX001 (ip), vehicle: saline
[6] = dose: 400.0 mg/kg/injection, schedule: Q01DX001 (ip), vehicle: saline

Measured: T/C

O=C1C(F)=C(N2CC2)C(=O)C(F)=C1N1CC1
inactive: dose: 0.39 mg/kg/injection, schedule: Q01DX009 (ip), vehicle: Klucel (hydroxypropylcellulose) (HPC) 104 % of control | dose: 0.78 mg/kg/injection, schedule: Q01DX009 (ip), vehicle: Klucel (hydroxypropylcellulose) (HPC) 100 % of control | dose: 0.78 mg/kg/injection, schedule: Q04DX003 (ip), vehicle: alcohol 113 % of control | dose: 1.56 mg/kg/injection, schedule: Q01DX009 (ip), vehicle: Klucel (hydroxypropylcellulose) (HPC) 116 % of control | dose: 1.56 mg/kg/injection, schedule: Q04DX003 (ip), vehicle: alcohol 105 % of control | dose: 3.12 mg/kg/injection, schedule: Q01DX009 (ip), vehicle: Klucel (hydroxypropylcellulose) (HPC) 102 % of control | dose: 3.12 mg/kg/injection, schedule: Q04DX003 (ip), vehicle: alcohol 105 % of control | dose: 6.25 mg/kg/injection, schedule: Q01DX009 (ip), vehicle: Klucel (hydroxypropylcellulose) (HPC) 93 % of control | dose: 6.25 mg/kg/injection, schedule: Q04DX003 (ip), vehicle: saline 110 % of control | dose: 9.2 mg/kg/injection, schedule: Q01DX009 (ip), vehicle: Klucel (hydroxypropylcellulose) (HPC) 98 % of control | dose: 14.0 mg/kg/injection, schedule: Q01DX009 (ip), vehicle: Klucel (hydroxypropylcellulose) (HPC) 87 % of control

O=C(N/N=C\c1ccccc1Cl)c1ccco1
inactive: [1] 92 % of control | [2] 86 % of control

FC(F)(F)C(Cl)(c1ccc(Cl)cc1)c1ccc(Cl)cc1
inactive: dose: 100.0 mg/kg/injection, schedule: Q04DX003 (sc), vehicle: olive oil, sesame oil, peanut oil 102 % of control | dose: 400.0 mg/kg/injection, schedule: Q04DX003 (sc), vehicle: olive oil, sesame oil, peanut oil 100 % of control

CC1(C)CC(N)CC(C)(C)N1O
inactive: dose: 100.0 mg/kg/injection, schedule: Q04DX003 (ip), vehicle: saline 100 % of control | dose: 200.0 mg/kg/injection, schedule: Q04DX003 (ip), vehicle: saline 97 % of control

CNC(=O)Nc1cc(C)ccc1Cl
inactive: dose: 50.0 mg/kg/injection, schedule: Q01DX009 (ip), vehicle: carboxymethylcellulose (CMC) 95 % of control and 89 % of control | dose: 87.5 mg/kg/injection, schedule: Q04DX003 (ip), vehicle: carboxymethylcellulose (CMC) 101 % of control | [1] 94 % of control | dose: 100.0 mg/kg/injection, schedule: Q04DX002 (ip), vehicle: carboxymethylcellulose (CMC) 100 % of control and 117 % of control | dose: 175.0 mg/kg/injection, schedule: Q04DX003 (ip), vehicle: carboxymethylcellulose (CMC) 93 % of control | [2] 92 % of control | dose: 200.0 mg/kg/injection, schedule: Q04DX002 (ip), vehicle: carboxymethylcellulose (CMC) 100 % of control and 102 % of control | dose: 350.0 mg/kg/injection, schedule: Q04DX003 (ip), vehicle: carboxymethylcellulose (CMC) 104 % of control | dose: 400.0 mg/kg/injection, schedule: Q01DX001 (ip), vehicle: carboxymethylcellulose (CMC) 94 % of control | dose: 400.0 mg/kg/injection, schedule: Q01DX009 (ip), vehicle: carboxymethylcellulose (CMC) 93 % of control | dose: 400.0 mg/kg/injection, schedule: Q04DX002 (ip), vehicle: carboxymethylcellulose (CMC) 93 % of control and 96 % of control

COC(=O)C1=C(C(=O)OC)C2CCC1C2
inactive: dose: 100.0 mg/kg/injection, schedule: Q01DX009 (ip), vehicle: other 103 % of control | dose: 200.0 mg/kg/injection, schedule: Q01DX009 (ip), vehicle: other 103 % of control | dose: 400.0 mg/kg/injection, schedule: Q01DX009 (ip), vehicle: other 98 % of control

Cc1nc2sc3c(c2c(=O)[nH]1)CCCC3
inactive: dose: 50.0 mg/kg/injection, schedule: Q01DX001 (ip), vehicle: saline sonified 122 % of control | dose: 100.0 mg/kg/injection, schedule: Q01DX001 (ip), vehicle: saline sonified 103 % of control | dose: 200.0 mg/kg/injection, schedule: Q01DX001 (ip), vehicle: saline sonified 101 % of control

O=C(COc1ccc(Cl)cc1)Nc1cccnc1
inactive: dose: 25.0 mg/kg/injection, schedule: Q01DX009 (ip), vehicle: Klucel (hydroxypropylcellulose) (HPC) 100 % of control | dose: 25.0 mg/kg/injection, schedule: Q04DX003 (ip), vehicle: Klucel (hydroxypropylcellulose) (HPC) 100 % of control | dose: 50.0 mg/kg/injection, schedule: Q01DX009 (ip), vehicle: Klucel (hydroxypropylcellulose) (HPC) 92 % of control | dose: 50.0 mg/kg/injection, schedule: Q04DX003 (ip), vehicle: Klucel (hydroxypropylcellulose) (HPC) 94 % of control | [3] 103 % of control

O=C(OCC1OCC(OC(=O)c2ccccc2)C1OC(=O)c1ccccc1)c1ccccc1 (stereo unspecified)
inactive: dose: 100.0 mg/kg/injection, schedule: Q01DX001 (ip), vehicle: saline with Tween-80 92 % of control | dose: 200.0 mg/kg/injection, schedule: Q01DX001 (ip), vehicle: saline with Tween-80 110 % of control

CCOC(=O)/C(C#N)=C1\C=C(NCc2ccccc2)CCC1
inactive: [4] 89 % of control | [5] 96 % of control | [6] 92 % of control

CCCCCCCCCCCCCCCCC(C(=O)OC)S(=O)(=O)O (stereo unspecified)
inactive: dose: 100.0 mg/kg/injection, schedule: Q04DX002 (ip), vehicle: saline 102 % of control | dose: 200.0 mg/kg/injection, schedule: Q04DX002 (ip), vehicle: saline 124 % of control | dose: 400.0 mg/kg/injection, schedule: Q04DX002 (ip), vehicle: saline 102 % of control

Nc1ccc(S(=O)(=O)C(Cl)c2ccccc2)cc1 (stereo unspecified)
inactive: [4] 104 % of control | [5] 102 % of control | [6] 104 % of control

NCC(=O)NC(CC(=O)O)C(=O)O (stereo unspecified) (H-Gly-[ξD]-OH)
inactive: [4] 97 % of control | [5] 104 % of control | [6] 97 % of control

COC1=CC(=O)C(C2CC(=O)c3c(O)cc(O)cc3O2)=CC1=O (stereo unspecified)
inactive: dose: 25.0 mg/kg/injection, schedule: Q01DX009 (ip), vehicle: saline with Tween-80 92 % of control | dose: 50.0 mg/kg/injection, schedule: Q01DX009 (ip), vehicle: saline with Tween-80 98 % of control | dose: 100.0 mg/kg/injection, schedule: Q01DX009 (ip), vehicle: saline with Tween-80 103 % of control

O=C(C(=Nc1ccccc1)C(=Nc1ccccc1)C(=O)c1ccccc1)c1ccccc1
inactive: dose: 100.0 mg/kg/injection, schedule: Q01DX001 (ip), vehicle: Klucel (hydroxypropylcellulose) (HPC) 97 % of control | dose: 200.0 mg/kg/injection, schedule: Q01DX001 (ip), vehicle: Klucel (hydroxypropylcellulose) (HPC) 98 % of control | dose: 400.0 mg/kg/injection, schedule: Q01DX001 (ip), vehicle: Klucel (hydroxypropylcellulose) (HPC) 95 % of control

O=C(CNC(=O)OCc1ccccc1)NC(Cc1ccc(O)cc1)C(=O)OCc1ccccc1 (stereo not drawn) (Cbz-Gly-[ξY]-OBn)
inactive: [3] 96 % of control | dose: 200.0 mg/kg/injection, schedule: Q04DX003 (ip), vehicle: Klucel (hydroxypropylcellulose) (HPC) 97 % of control | dose: 400.0 mg/kg/injection, schedule: Q04DX003 (ip), vehicle: Klucel (hydroxypropylcellulose) (HPC) 91 % of control

O=Nc1ccc(N(CCO)CCO)cc1
inactive: dose: 5.0 mg/kg/injection, schedule: Q01DX001 (ip), vehicle: saline 97 % of control | dose: 10.0 mg/kg/injection, schedule: Q01DX001 (ip), vehicle: saline 97 % of control | dose: 20.0 mg/kg/injection, schedule: Q01DX001 (ip), vehicle: saline 101 % of control | dose: 40.0 mg/kg/injection, schedule: Q01DX001 (ip), vehicle: saline 111 % of control

NC(=NCc1ccccc1)c1ncn(C2CCCC2)c1N
inactive: dose: 12.5 mg/kg/injection, schedule: Q01DX001 (ip), vehicle: Klucel (hydroxypropylcellulose) (HPC) 103 % of control | dose: 25.0 mg/kg/injection, schedule: Q01DX001 (ip), vehicle: Klucel (hydroxypropylcellulose) (HPC) 102 % of control | dose: 50.0 mg/kg/injection, schedule: Q01DX001 (ip), vehicle: Klucel (hydroxypropylcellulose) (HPC) 96 % of control

N#Cc1nc(-c2ccccc2)c(-c2ccccc2)nc1C#N
inactive: dose: 100.0 mg/kg/injection, schedule: Q01DX009 (ip), vehicle: Klucel (hydroxypropylcellulose) (HPC) 97 % of control | dose: 200.0 mg/kg/injection, schedule: Q01DX009 (ip), vehicle: Klucel (hydroxypropylcellulose) (HPC) 98 % of control | dose: 400.0 mg/kg/injection, schedule: Q01DX009 (ip), vehicle: Klucel (hydroxypropylcellulose) (HPC) 96 % of control

Cc1cccc(N(CCOC(=O)Nc2cccc(Cl)c2)CCOC(=O)Nc2cccc(Cl)c2)c1
inactive: [5] 100 % of control | [6] 89 % of control

O=C(OCC1OC(n2c(=O)[nH]c(=O)c3ncsc32)C(OC(=O)c2ccccc2)C1OC(=O)c1ccccc1)c1ccccc1 (stereo unspecified)
inactive: dose: 100.0 mg/kg/injection, schedule: Q01DX005 (ip), vehicle: saline 95 % of control | dose: 200.0 mg/kg/injection, schedule: Q01DX005 (ip), vehicle: saline 101 % of control
